Results on nine compounds are retold here after US12421205B2, “GLP-1 receptor agonist” (HYUNDAI PHARM CO., LTD., priority 2019, dated 2025).

The target of one data set is T1, human GLP-1 receptor (Homo sapiens, UniProt P43220).
T1 construct: host or cells: CHO-K1
Description: cAMP activity test (cAMP dynamic HTRF kit) in CHO-K1/GLP-1 receptor-expressing cells. It counts as cell-based. To be noted: cAMP activity, CHO-K1/GLP-1 receptor-expressing cells; read-out: EC50. A digest of the protocol: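 Cells in HBSS with 0.1% BSA, 0.5 mM IBMX and 5 mM HEPES, then lysed; cAMP-d2 and anti-cAMP cryptate added for 3 h. HTRF read-out, where FRET signal is inversely proportional to intracellular cAMP.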
Background: In TR-FRET formats the signal depends on donor and acceptor labels being close together.

For the next data set, the target named is T2, hERG (Homo sapiens, UniProt Q12809).
T2 construct: purchased Invitrogen PV5365
T2 sequence (Q12809 whole entry): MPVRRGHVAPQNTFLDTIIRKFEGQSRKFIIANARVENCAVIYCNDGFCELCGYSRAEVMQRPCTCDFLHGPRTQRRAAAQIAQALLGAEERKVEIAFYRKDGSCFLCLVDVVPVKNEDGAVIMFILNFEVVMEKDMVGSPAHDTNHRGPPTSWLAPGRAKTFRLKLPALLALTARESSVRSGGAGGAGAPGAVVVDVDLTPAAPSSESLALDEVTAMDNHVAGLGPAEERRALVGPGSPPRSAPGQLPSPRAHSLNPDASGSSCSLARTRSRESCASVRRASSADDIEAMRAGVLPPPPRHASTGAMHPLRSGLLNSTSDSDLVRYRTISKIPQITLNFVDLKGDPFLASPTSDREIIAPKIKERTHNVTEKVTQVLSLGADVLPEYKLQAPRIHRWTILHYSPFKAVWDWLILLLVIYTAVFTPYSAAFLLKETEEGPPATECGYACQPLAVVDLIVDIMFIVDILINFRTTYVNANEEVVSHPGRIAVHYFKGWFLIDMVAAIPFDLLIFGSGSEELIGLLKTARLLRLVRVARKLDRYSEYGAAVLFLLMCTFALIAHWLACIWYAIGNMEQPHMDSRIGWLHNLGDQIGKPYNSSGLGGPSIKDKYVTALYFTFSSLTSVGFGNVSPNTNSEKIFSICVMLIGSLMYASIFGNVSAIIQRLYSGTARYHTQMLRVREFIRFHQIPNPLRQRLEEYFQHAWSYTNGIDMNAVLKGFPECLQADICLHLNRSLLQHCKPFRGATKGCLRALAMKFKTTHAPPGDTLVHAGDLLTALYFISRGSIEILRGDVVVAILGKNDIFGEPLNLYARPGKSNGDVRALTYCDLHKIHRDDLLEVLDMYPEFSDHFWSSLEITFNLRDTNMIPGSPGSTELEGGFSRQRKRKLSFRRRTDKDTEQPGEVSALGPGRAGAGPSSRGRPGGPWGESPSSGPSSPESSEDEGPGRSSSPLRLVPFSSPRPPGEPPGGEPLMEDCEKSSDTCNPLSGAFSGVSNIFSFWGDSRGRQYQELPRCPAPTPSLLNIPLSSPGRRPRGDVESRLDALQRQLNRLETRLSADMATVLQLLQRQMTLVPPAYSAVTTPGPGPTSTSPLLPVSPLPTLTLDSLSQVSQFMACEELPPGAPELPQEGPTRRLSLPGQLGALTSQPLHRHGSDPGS
Description: hERG inhibition test (Predictor hERG Fluorescence Polarization assay kit). It counts as binding. To be noted: probe kit Tracer (fluorescent hERG ligand), hERG % inhibition at 10 uM, relative to E-4031 and solvent control. In outline: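 Competitive fluorescence-polarization binding of fluorescent tracer to hERG membrane preparation, 2.5 h at room temperature, mP read at 531/579 nm. % inhibition at 10 uM test compound, scaled between solvent control (0%) and E-4031 (100%).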

Structures are written as SMILES.

T1 sequence (P43220 24-463): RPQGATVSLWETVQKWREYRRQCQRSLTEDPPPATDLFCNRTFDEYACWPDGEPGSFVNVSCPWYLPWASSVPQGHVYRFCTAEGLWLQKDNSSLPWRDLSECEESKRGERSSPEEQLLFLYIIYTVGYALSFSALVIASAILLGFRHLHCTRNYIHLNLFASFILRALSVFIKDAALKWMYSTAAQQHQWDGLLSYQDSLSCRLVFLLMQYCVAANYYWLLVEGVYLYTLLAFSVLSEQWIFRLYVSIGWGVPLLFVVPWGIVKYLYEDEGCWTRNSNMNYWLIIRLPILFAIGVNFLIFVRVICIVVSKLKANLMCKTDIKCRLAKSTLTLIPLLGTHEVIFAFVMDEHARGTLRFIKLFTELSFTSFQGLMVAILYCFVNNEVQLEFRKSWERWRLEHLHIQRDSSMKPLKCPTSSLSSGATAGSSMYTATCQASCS

A word on the EC50: it is the concentration needed to bring the measured effect to its halfway point. A word on the inhibition: it is the drop in the measured response relative to a control, in per cent. For the compound `N#Cc1ccc(COc2cccc(-c3ccc(Cc4nc5ccc(C(=O)O)cc5n4CC4CCCO4)c(F)c3)c2)c(F)c1` (stereo not drawn) [Example 14, 2-((3′-(4-cyano-2-fluorobenzyloxy)-3-fluorobiphenyl-4-yl)methyl)-1-((tetrahydrofuran-2-yl)methyl)-1H-benzo[d]imidazole-6-carboxylic acid], the EC50 at human GLP-1 receptor was 93 nM. The inhibition at 2.5 h, 10 µM on hERG is -6.08%.
For the compound `N#Cc1ccc(COc2cccc(-c3ccc(Cc4nc5ccc(C(=O)O)cc5n4CC4CCCO4)c(F)c3)n2)cc1` (stereo not drawn) [Example 87, 2-(4-(6-(4-cyanobenzyloxy)pyridin-2-yl)-2-fluorobenzyl)-1-((tetrahydrofuran-2-yl)methyl)-1H-benzo[d]imidazole-6-carboxylic acid], the EC50 on human GLP-1 receptor came to 18 nM. Also, the inhibition at 2.5 h, 10 µM on hERG was 32.9%.
As for `O=C(O)c1ccc2nc(Cc3ccc(-c4cccc(OCc5ccc(F)cc5F)n4)c(F)c3)n(C[C@@H]3CCO3)c2c1` [Example 119, (S)-2-(4-(6-((2,4-difluorobenzyl)oxy)pyridin-2-yl)-3-fluorobenzyl)-1-(oxetan-2-ylmethyl)-1H-benzo[d]imidazole-6-carboxylic acid], the EC50 at human GLP-1 receptor was 12 nM. Besides, the inhibition at 2.5 h, 10 µM on hERG is 4.13%.
For `Cc1ccc(COc2cccc(-c3ccc(Cc4nc5ccc(C(=O)O)cc5n4CC4CCCO4)c(F)c3)n2)cc1` (stereo not drawn) [Example 76, 2-(2-fluoro-4-(6-(4-methylbenzyloxy)pyridin-2-yl)benzyl)-1-((tetrahydrofuran-2-yl)methyl)-1H-benzo[d]imidazole-6-carboxylic acid] the same measures were 38 nM and -0.5%.
As for `COCCn1c(Cc2ccc(-c3cccc(OCc4ccc(Cl)cc4F)n3)c(F)c2)nc2ccc(C(=O)O)cc21` [Example 6, 2-(4-(6-(4-chloro-2-fluorobenzyloxy)pyridin-2-yl)-3-fluorobenzyl)-1-(2-methoxyethyl)-1H-benzo[d]imidazole-6-carboxylic acid], the EC50 at human GLP-1 receptor was determined as 25 nM. Besides, the inhibition at 2.5 h, 10 µM on hERG is 22.8%.
For the compound `O=C(O)c1ccc2nc(Cc3ccc(-c4cccc(OCc5ccc(Cl)cc5F)c4)cc3F)n(CC3CCCO3)c2c1` (stereo not drawn) [Example 16, 2-((3′-(4-chloro-2-fluorobenzyloxy)-3-fluorobiphenyl-4-yl)methyl)-1-((tetrahydrofuran-2-yl)methyl)-1H-benzo[d]imidazole-6-carboxylic acid], the EC50 on human GLP-1 receptor was 82 nM. In addition, at hERG, the inhibition at 2.5 h, 10 µM was -0.94%.
Turning to `O=C(O)c1ccc2nc(Cc3ccc(-c4cccc(OCc5ccc(Cl)cc5F)n4)cc3F)n(CC3CCCO3)c2c1` (stereo not drawn) [Example 17, 2-(4-(6-(4-chloro-2-fluorobenzyloxy)pyridin-2-yl)-2-fluorobenzyl)-1-((tetrahydrofuran-2-yl)methyl)-1H-benzo[d]imidazole-6-carboxylic acid], the EC50 on human GLP-1 receptor worked out at 8.2 nM. Further, at hERG, the inhibition at 2.5 h, 10 µM was -9.12%.
Regarding `N#Cc1ccc(COc2cccc(-c3cc(F)c(Cc4nc5ccc(C(=O)O)cc5n4CC4CCCO4)cc3F)n2)c(F)c1` (stereo not drawn) [Example 71, 2-(4-(6-(4-cyano-2-fluorobenzyloxy)pyridin-2-yl)-2,5-difluorobenzyl)-1-((tetrahydrofuran-2-yl)methyl)-1H-benzo[d]imidazole-6-carboxylic acid], the EC50 at human GLP-1 receptor was under 3.2 nM. Moreover, the inhibition at 2.5 h, 10 µM on hERG was -2.52%.
Consider `O=C(O)c1ccc2nc(Cc3ccc(-c4cccc(OCc5ccc(Cl)cc5F)n4)c(F)c3F)n(C[C@@H]3CCO3)c2c1` [Example 82, (S)-2-(4-(6-(4-chloro-2-fluorobenzyloxy)pyridin-2-yl)-2,3-difluorobenzyl)-1-(oxetan-2-ylmethyl)-1H-benzo[d]imidazole-6-carboxylic acid], for which the EC50 at human GLP-1 receptor is 4 nM. Moreover, the inhibition at 2.5 h, 10 µM on hERG is 7.24%.
